How the values were obtained:
obese male ob/ob mice = assay: Chronic 28-day treatment of ob/ob mice; type: in vivo
Procedure: Summary: CGH was administered daily for 28 days to obese male ob/ob mice. Mice were also treated with vehicle saline and thyroxine. Data was obtained for food intake, blood glucose, serum insulin, serum lipids, and serum thyroid hormone levels. At sacrifice, animals were examined for changes in liver pathology, and gross histology. […] Evaluation of liver histology sections was performed to examine the effect of CGH-mediated lipolysis on liver steatosis.
11-week old male ob/ob mice were individually caged and given a standard lab chow (4% fat) with free access to food and water. Animals were assigned to a treatment group (n=7−8, average weight 54.3±0.3 g/group), kept on a 12 hour dark cycle (6 PM to 6 AM), and injected each day between 7 and 9 AM. Chow consumed by each animal was weighed twice weekly. All animals received treatments IP in an injection volume of 0.1 ml. CGH was administered at 250 μg/kg, dissolved in sterile saline. Thyroxine (T4) was administered at 1.5 μg/mouse for 4 days, reduced to 1 μg/mouse for 10 days, and returned to 1.5 μg/mouse for the next 14 days. The vehicle controls received sterile saline. TSH was obtained from Genzyme Pharmaceuticals (Thyrogen®, Catalog number 36778; Genzyme Corporation, Cambridge, Mass.), and T4 obtained from Calbiochem, Inc. (EMD Biosciences, catalog number 61205, San Diego, Calif.) All blood draws were performed by retro-orbital puncture under isoflurane anesthesia.
After 25 days of treatment as described above, blood was sampled from all treated animals, serum separated, and analyzed for total T4 by a commercially available kit (Biocheck, Burlingame, Calif.). After 25 days of treatment, the vehicle T4 levels were 5.14±0.08 μg/dl. The CGH-treated group had T4 levels of 7.25±1.2 μg/dl, and the thyroxine-treated group had T4 levels of 9.04±0.47 μg/dl.
Subject animals were fasted for 4 hours at the beginning of the light cycle, and serum was obtained at treatment day 25 under isoflurane anesthesia. Serum Glucose levels were determined with the Cholestech LDX blood analyzer (Cholestech Corporation, Hayward Calif.), and serum insulin levels by ELISA. Serum glucose levels for vehicle and thyroxine treated groups were 306±22 and 295±23 mg/dl, respectively. […] Serum insulin levels for the vehicle and thyroxine treated groups were 33.5±1.8 and 25.9±1.7 ng/ml, respectively.
Subject animals were fasted for 4 hours at the beginning of the light cycle, and serum was obtained at treatment day 25 under isoflurane anesthesia. Triglyceride and total cholesterol levels were determined with the Cholestech LDX blood analyzer. Serum triglyceride levels for the vehicle controls were 143.7±23 mg/dl. […] Total cholesterol levels in the vehicle-treated and thyroxine-treated groups were 198±13 and 194±15 mg/dl, respectively.
Liver sections were dissected from all treatment groups described above and mounted in paraffin following fixation with NBS-formalin. Sections were mounted and stained with hematotoxylin and eosin (H&E) for visualization of hepatic structural changes. The extent of liver steatosis was evaluated on a four-point scale, from 0 to 3, with zero displaying no signs of liver steatosis, and a […], represented pronounced macrovesicular and microvesicular steatosis. […] Average scores given to the groups were vehicle (4), thyroxine (3), and CGH (1.5). […] The CGH treated sections appear to have regained hallmarks of normal hepatocyte architecture in only 28 days of treatment, with areas containing hepatocytes without lipid-laden inclusions in the cytoplasm of the cell.

lipolysis in mice = assay: Stimulation of lipolysis in vivo, serum glycerol and FFA; details: fasted mice, IP; CGH 300 μg/kg, CL 1 mg/kg
Procedure: CGH, the β3-adrenoreceptor agonist CL 316,243 (CL), and saline vehicle were examined for stimulation of lipolysis in mice following an overnight fast. […] Lipolysis was assessed as the percent change in serum glycerol or FFA over the 2 hour period. The serum glycerol and FFA for the vehicle groups decreased by 7%±9% and 24%±15%, respectively. The serum glycerol for the CGH group increased by 57%±20%; p=0.0254, and the FFA levels increased 25%±5%; p=0.0188.
C57 BL/6 male mice, age 19 weeks, were grouped to normalize weight (n=4 for each treatment; average group weight=37.8 g±0.4 g). Mice were housed individually for 18 hours prior to treatment, at which time food was withdrawn, with free access to water given. At approximately 8 a.m., the subjects were anesthetized with halothane and blood samples taken by retro-orbital eye bleed. The blood was allowed to clot, and the serum was separated by centrifugation and frozen for later analysis. Test substances were administered by IP injection in a volume of 0.1 ml, and the animals replaced in their cages for 2 hours with free access to water. At 2 hours, the mice were sacrificed and blood drawn by cardiac puncture.
For measuring free fatty acids in serum, the method previously described for measuring free fatty acids in conditioned media was followed, with the following modifications. Wako reagents A and B were reconstituted to 2× the recommended concentration. 75 μl of Wako reagent A were added to 5 μl of oleic acid standard plus 5 μl of water. 75 μl of Wako reagent A were added to 5 μl of serum plus 5 μl of methanol (to mirror the oleic acid standard conditions). The 96-well plates were incubated at 37° C. for 10 minutes. 150 μl of Wako reagent B were added to each well. The 96-well plates were incubated at 37° C. for 10 minutes. The 96-well plates were allowed to sit at room temperature for 5 minutes. The 96-well plates were centrifuged in a Beckman Coulter Allegra 6R centrifuge at 3250×g for 5 minutes to remove air bubbles. The absorbance at 530 nm was measured on the Wallac Victor2 Multilabel counter.
For measuring glycerol in serum, the method previously described for measuring glycerol in conditioned media was followed, with the modifications described below.
Sigma reagent A was reconstituted to 0.5× the recommended concentration. 200 μl of Sigma reagent A were added to 10 μl of glycerol standard. 200 μl of Sigma reagent A were added to 5 μl of serum plus 5 μI of water. The 96-well plates were incubated for 15 minutes at room temperature. The 96-well plates were centrifuged in a Beckman Coulter Allegra 6R centrifuge at 3250×g for 5 minutes to remove air bubbles. The absorbance at 530 nm was measured on the Wallac Victor2 Multilabel counter.

TSHR = assay: Binding of 125I-CGH and 125I-TSH to BHK cells expressing the TSHR; parameters: species or system murine or human; details: increasing amounts of unlabeled protein
Procedure: BHK cells expressing murine or human TSHRs were cultured in Dulbecco's Modified Eagle's Medium [DMEM (high glucose)] containing 5% fetal bovine serum, 1% Glutamax, 1% sodium pyruvate, 250 nM methotrexate, and Geneticin ( 1/100). […] Plates of cells were placed on ice and washed twice with 1.0-2.0 ml of ice-cold PBS. […] Specific binding was determined in the presence (nonspecific binding) and absence (total binding) of unlabeled rhCGH (25.0 μg/ml) or TSH (10 μg/ml). Binding reactions were terminated by removing the binding medium and the cell monolayers were washed three times with 1.0-2.0 ml of ice-cold PBS containing 1.0 mg/ml BSA and twice with 1.0-2.0 ml of ice cold albumin-free PBS. Cells were solubilized in 1.0 ml of 1.0N NaOH for 10 min at room temperature and cell-associated radioactivity was determined in a gamma counter. The measured radioactivity was normalized to cell number that was determined on plates of cells cultured in parallel. Binding data were analyzed by non-linear regression using Prizm 3.0 (GraphPad Software, San Diego, Calif.).

[1] = test system: LPS-induced mild endotoxemia mouse model; assay: LPS-induced mild endotoxemia mouse model, serum cytokines; type: in vivo, mice; details: 2 mg/kg monomer, data not shown
Procedure: An in vivo experiment was designed to examine the effect of CGH in a mouse model of LPS-induced mild endotoxemia. This model mimics acute endotoxemia/sepsis by challenging mice with a low, non-lethal dose of bacterial endotoxin (lipopolysaccharide, LPS). Serum is collected at various timepoints (1-8 hours) after intraperitoneal LPS injection and analyzed for altered expression of a wide variety of pro- and anti-inflammatory cytokines and acute phase proteins that mediate the inflammatory response. The model provides a means to assess the potential anti-inflammatory effects of therapeutic candidates during a robust inflammatory response. To initially assess the model, we measured proinflammatory cytokines in a pilot experiment to collect reference data for the model.
C57B1/6 mice (Charles River Laboratories; 5 mice/group) were treated i.p. with PBS, 0.2 mg/kg CGH in PBS, or 2 mg/kg CGH in PBS 1 hour prior to LPS challenge. The mice were then challenged with 25 ug of LPS i.p. and bled at 1 hour and 4 hours after LPS injection. Serum was analyzed for TNF[…] (1 hour) and IL-6 (4 hours) levels by ELISA.
To determine if CGH would potentiate the effect of a sub-maximal dose of glucocorticoid, groups of 10 C57B1/6 mice each were treated i.p. with PBS, 0.15 or 1.5 mg/kg Dex, 2 mg/kg CGH, or a combination of CGH and low or high doses of Dex, 1 hour prior to injection of 25 ug LPS i.p. As shown in TABLE 3 (Expt #2), either 2 mg/kg CGH or 1.5 mg/kg Dex treatment alone (1 hour prior to LPS) caused a significant drop in serum TNFα levels at 1 hour, as observed in previous experiments. The effects of CGH administered in conjunction with Dex on inhibition of TNFα production were greater than either dose of Dex alone.

N[C@@H](Cc1cc(I)c(Oc2cc(I)c(O)c(I)c2)c(I)c1)C(=O)O [thyroxine, reference compound]
liver steatosis average score (obese male ob/ob mice; H&E liver sections, 28 days, n=4): 3
serum total T4 levels (obese male ob/ob mice; after 25 days of treatment): 9.04 ± 0.47 µg/dL
Serum glucose levels (obese male ob/ob mice; day 25, fasted 4 hours): 295 ± 23 mg/dL
Serum insulin levels (obese male ob/ob mice; day 25, fasted 4 hours): 25.9 ± 1.7 ng/mL
Serum triglyceride levels (obese male ob/ob mice; day 25, fasted 4 hours): 198 ± 43 mg/dL
Total cholesterol levels (obese male ob/ob mice; day 25, fasted 4 hours): 194 ± 15 mg/dL
Food intake (obese male ob/ob mice; ob/ob mice, CGH 250 μg/kg IP daily, T4 1-1.5 μg/mouse): 6.1±0.17 grams/day of chow

C[C@H](Cc1ccc2c(c1)OC(C(=O)[O-])(C(=O)[O-])O2)NC[C@H](O)c1cccc(Cl)c1.[Na+].[Na+] [CL, CL 316,243, reference compound]
percent change (increase) in serum FFA over 2 hours (lipolysis in mice): 82%±16%
percent change (increase) in serum glycerol over 2 hours (lipolysis in mice): 168%±23%

B1: zsig51: alpha subunit of CGH, glycoprotein hormone alpha2, previously called Zsig51 (protein)
chain: QEAVIPGCHLHPFNVTVRSDRQGTCQGSHVAQACVGHCESSAFPSRYSVLVASGYRHNITSVSQCCTISGLKKVKVQLQCVGSRREELEIFTARACQCDMCRLSRY
reduction of the amount of 125I-CGH bound by unlabeled competitor (TSHR): neither unlabeled rhTSH (FIG. 1C) nor unlabeled rhGPHA2 nor rhGPHB5 (data not shown) reduced the amount of ^125I-CGH bound
effect on serum TNFα or IL-6 levels [1]: neither of these monomers had any effect

B2: zlut1: beta subunit of CGH, glycoprotein hormone beta 5, previously called Zlut1 (protein)
chain: ASSGNLRTFVGCAVREFTFLAKKPGCRGLRITTDACWGRCETWEKPILEPPYIEAHHRVCTYNETKQVTVKLPNCAPGVDPFYTYPVAIRCDCGACSTATTECETI
reduction of the amount of 125I-CGH bound by unlabeled competitor (TSHR): neither unlabeled rhTSH (FIG. 1C) nor unlabeled rhGPHA2 nor rhGPHB5 (data not shown) reduced the amount of ^125I-CGH bound
effect on serum TNFα or IL-6 levels [1]: neither of these monomers had any effect

Reference: patent publication US20070014736A1, “Methods of delivering corticotroph-derived glycoprotein hormone” (priority 2005, published 2007)
